Test results as given in patent US20070099250A1, “Methods for treating proliferative diseases and for monitoring the effectiveness of treatment of proliferative diseases” (priority 2003, published 2007).

Legend:
[1] = test system: Heat-shock 110 kD protein; test: Inverse labeling-MS phosphopeptide analysis of HCT116 cell lysate treated with BPMI; assay type: cell-based, human; details: HCT116 cells, 20 μM BPMI, 1.5 hours; phosphopeptide IEpSPKLER
Protocol: (§1) Human colorectal cell line HCT116 cells are grown in 6-well plates. Prior to harvesting, the cells are treated with 20 μM of the Raf inhibitor BPMI and DMSO control for 1.5 hours, respectively. Cells are then rinsed with PBS, and lysed for 5 minutes at 4° C. in Doriano lysis buffer with 100 μg/mL Perfabloc/2 μg/mL aprotinin/2 μg/mL leupeptin/1 mM NaVO4/10 mM NaF. The supernatant of the lysates are collected after centrifugation at 3,000 rpm for 5 minutes. The protein concentration is determined using Bio-Rad reagent, and the lysates are frozen at −80° C. prior to fkrther processing and analysis.
(§2) One μL of RNase A (20 mg/mL, Sigma, St Louis, Mo.) and 1 μL of RNase T1 (10 units/mL, Invitrogen, Carlsbad, Calif.) are added to each 1 mL of lysates (total 3 mg of HCT116-DMSO control and 3 mg of HCT116-BPMI, respectively), and incubated at 37° C. for half an hour to degrade RNAs. Proteins are denatured using 6 M guanidine HCl, followed by reduction with 20 mM 1,4-dithio-DL-threitol (DTT) at 58° C. for 40 minutes and alkylation with 40 mM iodoacetamide at room temperature for 30 minutes in the dark. Each protein solution is transferred to a Slide-A-Lyzer (10,000 MW cutoff, Pierce, Rockford, IL) dialysis cassette and dialyzed against 2 to 0 M urea/50 mM ammonium bicarbonate to remove small molecule impurities and buffer exchange to 50 mM ammonium bicarbonate. Proteolysis is carried out using modified, sequencing grade trypsin (Promega, Madison, Wiss.) at a 1:200 trypsin-to-protein ratio (wt:wt) in 50 mM ammonium bicarbonate at 37° C. overnight.
(§3) The peptide digests are filtered through Centricon Filters (10,000 MW cutoff, Millipore, Bedford, Mass.) to remove large molecule impurities including detergents. Flow-through (peptides) is collected. Solvent and ammonium bicarbonate are subsequently removed by SpeedVac drying.
(§4) d0- or d3-methanolic HCl (2M) (methyl esterification reagent) is prepared by adding 160 μL of acetyl chloride to 1 niL of anhydrous d0-methyl alcohol or d3-methyl d-alcohol drop wise while stirring. After 10 minutes, 1 mL of the methyl esterification reagent is added to 1.5 mg of lyophilized peptide mixture. The reaction is performed in parallel to two identical aliquots for every sample, one using d0-reagent and one using d3-reagent, respectively. The reaction is allowed to proceed at room temperature for 30 minutes. The excess reagents are removed by SpeedVac drying. Subsequently the peptide mixtures are reconstituted with water. The inverse labeling is achieved by mixing d0-control with d3-treated (BPMI) and d3-control with d0-treated.
(§5) Enrichment of phosphopeptides is performed on a 2.1×30 mm IMAC column (POROS 20 MC, Applied Biosystems, Foster City, Calif.). Briefly, the column is washed with water, 100 mM EDTA in 1 M NaCl, followed by water and 1% acetic acid. The column is then activated with 100 mM FeCl3. […] of the inversely labeled methyl esterified peptide mixture (500 μg each form of d0 and d3) is dissolved in 1% acetic acid in 50% acetonitrile/water, and loaded onto iron-activated IMAC column. The unbound peptides are removed by washing with 1% acetic acid in 50% acetonitrile/water. The bound phosphopeptides are eluted with 2% ammonium hydroxide in 50% acetonitrile/water (pH approximately 9 to 10). Acetic acid is added to neutralize the eluent prior to SpeedVac drying. The phosphopeptide mixture is reconstituted with 0.1% formic acid and analyzed using capillary LC/MS, as described below.
(§6) An Ultimate capillary/nano HPLC system (LC Packings, San Francisco, Calif.) with a Swichos micro column-switching module (LC Packings, San Francisco, Calif.) is used for analysis. Separation is carried out on a 0.18×150 mm capillary column, packed with 3 μm C18 stationary phase of 300-Å pore size (PepMap, LC Packings, San Francisco, Calif.), operating at a flow rate of 2 μL/min. Mobile phase A consists of 0.1% (v/v) formic acid in water and mobile phase B of 0.1% (v/v) formic acid in acetonitrile. […]

[2] = test system: Oncoprotein 18; test: as above; assay type: cell-based, human; details: for Change (treated/control) in phosphorylation / Change in phosphorylation, % down: HCT116 cells, 20 μM BPMI, 1.5 hours
Protocol: as §1, §2, §3, §4, §5, §6

[3] = test system: Oncogene EMS1; test: as above; assay type: cell-based, human; details: HCT116 cells, 20 μM BPMI, 1.5 hours
Protocol: as §1, §2, §3, §4, §5, §6

[4] = test system: Mouse fetuin; test: Inverse labeling-MS analysis of DU145 tumor tissue lysates, mouse tumor xenograft, in vivo BPMI; details: 1 hour BPMI treatment, 200 mg/kg p.o., phosphopeptide VoxMHTQCHSTPDpSAEDVR
Protocol: (§7) The phosphoproteome mapping method is further tested/applied to an in vivo study of the Raf inhibitor, BPMI (one-hour treatment, 200 mg/kg p.o.), in the analysis of tissue lysates of mouse tumor xenograft.
(§8) The methyl esterification/IMAC procedure is successful in removing the blood contamination from the tissue samples. […] Additional changes in phosphorylation are also detected which includes oncogene EMS1, mouse fetuin and Epithelial-cadherin (see Table 2).

[5] = test system: Oncoprotein 18; test: as above; details: for Change (treated/control) in phosphorylation / Change in phosphorylation, % down: DU145 tumor tissue, 1 hour BPMI treatment, 200 mg/kg p.o.
Protocol: as §7, §8

[6] = test system: Oncogene EMS1; test: as above; details: 1 hour BPMI treatment, 200 mg/kg p.o.
Protocol: as §7, §8

[7] = test system: Epithelial-cadherin (mouse/human); test: as above; details: 1 hour BPMI treatment, 200 mg/kg p.o., phosphopeptide MRDWVIPPIpSCPENEK
Protocol: as §7, §8

[8] = test system: MAPK pathway in HCT116 cells; test: Inhibition of MAPK pathway in HCT116 cells; assay type: cell-based, human
Protocol: (§9) The treatment of HCT116 cells with BPMI leads to the inhibition of OP18 phosphorylation at Ser^25 residue (data not shown). […] Additional data also provides that BPMI inhibits OP18 Ser^25 phosphorylation with an IC50 of approximately 5 μM. Thus, it appears that both MAPK and OP18 Ser^25 phosphorylation are inhibited at a similar level for a given dose of a raf inhibitor.

[9] = test system: OP18 Ser25 phosphorylation; test: Western blot analysis of Raf-inhibitor-treated HCT116 cell lysates, phospho-Ser25 specific OP18 antibody; assay type: cell-based, human
Protocol: HCT1 16 cells are prepared. as in Example 1 above and treated with a Raf inhibitor (BPMI) for 1.5 hr. Cells are lysed in Incomplete Laemmli buffer (0.1 IM Tris.Cl pH 7.0, 4% SDS, 10% glycerol), and passed through a syringe fitted with 25 gauge needle to break apart genomic DNA. The lysate is boiled for 5 minutes, and loaded onto 10% SDS-PAGE gel. Proteins in the SDS-PAGE gel are then transferred to nitrocellulose membrane. The membrane is blocked with 5% milk for 1 hr, and incubated with the an antibody specific for Ser^25 phosphorylated OP18 for an additional hour. The phosphor-Ser^25 specific OP18 antibody is raised in rabbit using standard techniques and purification known in the art. The amino acid sequence used to generate phosphor-Ser^25 specific OP18 antibody is ELILpSPRSKESVPEFP (SEQ ID NO:_). The blot is washed three times with TBST 15 minutes each, and then incubated with anti-rabbit HRP-conjugated antibody for 1 hr. The blot is washed three times with TBST 15 minutes each, and the antibody bound proteins are labeled using SuperSignal West Dura Extended Duration substrate (Piece Biotechnologies, Rockford, Ill.). The phosphorylated OP18 proteins are detected via exposing the blot through a film (Eastman Kodak, Rochester, N.Y.).
as §9

[10] = phosphopeptide LPS*pSPVYEDAASFK
[11] = phosphopeptide T*QpTPPVpSPAPQPTEER

With `CC(C)(C)c1ccc(Nc2ncc(Cc3ccncc3)c3ccccc23)cc1` [BPMI, 1-(4-t-butylanilino)-4-[(pyridin-4-yl)-methyl]-isoguinoline] the “Change (treated/control) in phosphorylation” value (from here on “Change (treated/control)”) [1] was 0.7, the “Change in phosphorylation, % down” value [1] was “(30% down)” and the “Op18 Ser25 phosphorylation upon BPMI treatment (FIG. 1)” value ([2]; HCT116 cell lysate, inverse labeling-MS) was “Down-regulation”. The “Change (treated/control)” value ([2]; phosphopeptide ASGQAFELILpSPR) was 0.4, the “Change in phosphorylation, % down” value ([2]; phosphopeptide ASGQAFELILpSPR) was “(60% down)” and the “Change (treated/control)” value ([2]; phosphopeptide SKESVPEFPLpSPPK) was 0.6. The “Change in phosphorylation, % down” value ([2]; phosphopeptide SKESVPEFPLpSPPK) was “(40% down)”, the “Change (treated/control)” value [3, 10] was 0.8 and the “Change in phosphorylation, % down” value [3, 10] was “(20% down)”. The “Change (treated/control)” value [3, 11] was 0.7, the “Change in phosphorylation, % down” value [3, 11] was “(30% down)” and the “Change (treated/control)” value [4] was 0.6. The “Change in phosphorylation, % down” value [4] was “(40% down)”, the “Change (treated/control)” value ([5]; phosphopeptide ASGQAFELILpSPR) was 0.4 and the “Change in phosphorylation, % down” value ([5]; phosphopeptide ASGQAFELILpSPR) was “(60% down)”. The “Change (treated/control)” value ([5]; phosphopeptide SKESVPEFPLpSPPK) was 0.8, the “Change in phosphorylation, % down” value ([5]; phosphopeptide SKESVPEFPLpSPPK) was “(20% down)” and the “OP18 Ser25 phosphorylation in vivo (FIG. 2B)” value ([5]; tumor tissue DU145, methyl esterification/IMAC) was “down-regulation”. The “Change (treated/control)” value [6, 10] was 0.7, the “Change in phosphorylation, % down” value [6, 10] was “(30% down)” and the “Change (treated/control)” value [6, 11] was 0.6. The “Change in phosphorylation, % down” value [6, 11] was “(40% down)”, the “Change (treated/control)” value [7] was 0.5 and the “Change in phosphorylation, % down” value [7] was “(50% down)”. For the same compound, the IC50 [8] was 5.3 µM, the “OP18 phosphorylation at Ser25 residue, Western blot” value ([9]; HCT116 cells, 1.5 hr treatment (data not shown)) was “inhibition” and the “Phosphorylation seen at Ser25 residue of the OP18 protein, Western blot” value ([9]; HCT116 cells, at 10 μM) was “almost no phosphorylation”. It also gave an IC50 ([9]; additional data, read-out: IC50 for inhibition of OP18 Ser25 phosphorylation) of ~5 µM.
